Experimental data: patent publication CN102775413A, “氨基取代吴茱萸次碱类似物及其合成方法与在制备抗肥胖症药物中的应用” (Sun Yat Sen University, priority 2012, dated 2012)
Entries after “also recorded” stand apart in the source; their conditions may differ.

What was measured:
[1] = system: 3T3-L1 mouse adipocytes (3T3-L1小鼠脂肪细胞); experiment: Triglyceride content of differentiating 3T3-L1 adipocytes (triglyceride assay kit); format: cell-based
[2] = system: cells (细胞); experiment: Reduction of fat accumulation (general statement, test not specified); format: cell-based; conditions: inventors' finding
[3] = system: FAO rat hepatocytes (FAO大鼠肝细胞); experiment: High-fructose-induced fat accumulation in FAO hepatocytes (triglyceride kit and BCA protein kit); format: cell-based; conditions: 24 h, Fig. 5
[4] = Precipitation from culture medium, microscopy, 15 μM (Example 10, Fig. 4); format: physicochemical; conditions: incubated with 3T3-L1 cells 6 days
[5] = Precipitation from culture medium, microscopy, 20 μM (Example 11, Fig. 6); format: physicochemical; conditions: 24 h incubation with cells

With `O=c1c2ccccc2nc2n1CCc1c-2[nH]c2ccccc12` [R1, 吴茱萸次碱] the “effect on triglyceride content of 3T3-L1 cells vs DMSO control (DM)” value ([1]; 1 μM, Fig. 1, significance vs DM) was “显著性地降低”, the inhibition at 3 µM ([1]; Mus musculus, 144 h, 3T3-L1 cells, 3 μM, Day 6, vs DMSO control, mean of three independent experiments, Fig. 2, read-out: reduction of triglyceride content) was 34% and the “concentration dependence of reduction of fat accumulation in 3T3-L1 cells” value ([1]; R1 0, 0.3, 1, 3, 10, 15 μM, R17 and R18 0, 0.03, 0.1, 0.3, 1, 3 μM, Fig. 2) was “浓度依赖性地减少”. The “reduction of fat accumulation in cells” value [2] was “能减少细胞的脂肪蓄积”, the inhibition at 10 µM ([3]; Hepatocyte, FAO rat hepatocytes, 10 μM, 25 mM fructose, triglyceride per mg protein vs control, mean of three independent experiments, read-out: reduction of high-fructose-induced fat accumulation) was 72% and the “concentration dependence of inhibition of high-fructose-induced fat accumulation in FAO rat hepatocytes” value ([3]; R1 0, 0.3, 10, 20 μM, R17 0, 0.1, 0.3, 10 μM) was “浓度依赖性地抑制; also recorded: 浓度依赖性地减少”. The “precipitation from culture medium” value [4] was “从培养基中析出来” and the “precipitation from culture medium” value [5] was “会从培养基中析出; also recorded: 从培养基中析出来”.
